According to patent US6656499B1, “Composition for transdermal and dermal administration of interferon-α” (PharmaDerm Laboratories, Ltd., priority 1999, dated 2003):

Columns and labels:
[1] = In vitro diffusion of IFN-α into human skin, flow-through diffusion cells, antiviral bioassay of skin homogenate; conditions: Biphasic lipid vesicles + acylated amino acid + IFN-α, 24 hours, n = 4
[2] = guinea pigs, lipid vesicle patch 24 hours, FIG. 1A, vs untreated control animals
2-5A synthetase = 2-5A synthetase enzyme activity in PBMC of treated human subjects; type: in vivo; conditions: all three treatment groups compared to their untreated controls (p<0.05)
Procedure: The experimental protocol is set forth in Example 5C.
Induction of 2-5A synthetase enzyme activity in peripheral blood mononuclear cells (PBMC) was used as an indication for the systemic delivery of IFN-α from biphasic delivery systems.
2-5A synthetase was determined by a ^125I-2-5A radioimmuno assay kit (Eiken Chemical Corp., Tokyo, Japan) using rabbit anti-human 2-5A antibody and goat antirabbit IgG as secondary antibody. Briefly, 2-5A synthetase was extracted from the samples by poly (I) poly (C) agarose for 10 min. After the addition of ATP solution (24 μg/mL) and incubation, 100 μL ^125I-2-5A was added, followed by the primary and secondary antibody. Radioactivity bound was determined by gamma counting. 2-5A synthetase is measured as pmol 2-5A produced/100 mL/h and subsequently expressed as nmole enzyme/mg protein 1 h in skin homogenate. All samples were run in duplicates.

[3] = tested on: Ki67 nuclear protein in proliferating cells; assay: Anti-proliferation assay on skin sections of human volunteers (Ki67 staining); type: in vivo; conditions: for Average % decrease of proliferative cells stained by anti-Ki67 antibody: 48 hours
Description: Skin sections were also stained for Ki67 nuclear protein in proliferating cells using anti-M1B1 monoclonal antibodies (Rose et al., J. Clin. Pathol., 47:1010 (1994)) and visualized.
The number of stained cells were counted before and after treatment sections. The decreased number of stained cells were expressed as a percentage.

[4] = Immunohistochemistry of skin biopsies with anti-IFN-α antibodies; type: in vivo, human; conditions: 40 MU group, treated skin site vs untreated skin
Description: The skin biopsy taken from the site of application of the biphasic lipid vesicle-containing transdermal patch of each test subject was processed for immunohistochemistry. A skin sample from a representative individual in the treatment group receiving 40 MU IFN-α was compared visually to a skin section of control, untreated skin after staining both samples with anti-IFN-α antibodies. […] This staining pattern was characteristic in all volunteers in this treatment group.
Sections 5 μm in thickness were cut and after antigen retrieval with 10 mM Na-citrate the sections were incubated with mouse anti-human interferon alpha antibody (1:2,000-1:5,000), which were in turn treated with a biotinylated rabbit anti-mouse secondary antibody and stained by the Avidin Biotin Complex (ABC) method.

[5] = human, in vivo
Procedure: The human subjects were divided randomly into three groups for treatment with a transdermal patch containing a lipid vesicle compositions at one of the three IFN-α concentrations. […] After treatment with the placebo, skin biopsies and blood samples were collected from each subject. In Phase II of the study, each subject was treated with a transdermal patch containing IFN-α entrapped in biphasic lipid vesicles at one of the three concentrations: 5 MU/g formulation/patch, 15 MU/g formulation/patch or 40 MU/g formulation/patch. After treatment for 48 hours, skin biopsies and blood samples were taken and analyzed. The biopsy samples were analyzed by immunohistochemistry, antiviral assay, ELISA and 2-5A synthetase assays. The blood samples were used to prepare serum for the antiviral and ELISA assays and to extract peripheral blood mononuclear cells for the 2-5A synthetase assay.
To determine IFN-α concentration in skin homogenates, Cytoscreen™ ELISA kit (Medicorp, Montreal, PQ) was used. The sensitivity of the assay is <25 pg/mL and the range of concentration is 0-500 pg/mL. The assay is specific for human IFN-α with no cross-reactivity with human IFNβ, IFNγ or IFNω. The results are expressed as pg IFN-α/mg skin.
Seventeen human volunteers were randomized into three treatment groups. […]

[6] = Antiviral activity in serum of human subjects after transdermal patch; conditions: individual subjects in each treatment group (5, 15, 40 MU), before vs after 48 hours patch, FIGS. 4A-4C

CCCCCCCCCCCC(=O)NCCCC[C@H](N)C(=O)O [MLL, Lauroyl lysine]
Average Amount of IFN-α in skin [1]: 250 ± 112 U/mg protein

CCCCCCCC(=O)N[C@H](C(=O)OC)[C@@H](C)O [PDM1, N-capryloyl-L-threonine methyl ester]
Average Amount of IFN-α in skin [1]: 290 ± 172 U/mg protein

CCCCCCCCCCCCCCCCCCCC(=O)N[C@@H](CO)C(=O)O [PDM3, N-eicosanoyl-L-serine]
serum antiviral activity / transdermal skin penetration (in words) [2]: significant increase | Average Amount of IFN-α in skin [1]: 2022 ± 1046 U/mg protein

CCCCCCCCCCCCCCCCCCCC(=O)N[C@H](C(=O)O)[C@@H](C)O [PDM4, N-eicosanoyl threonine]
Average Amount of IFN-α in skin [1]: 1707 ± 538 U/mg protein

CCCCCCCCCCCCCCCC(=O)N[C@@H](CCCCNC(=O)CCCCCCCCCCC)C(=O)OC [PDM17, Nα-palmitoyl-Nε Lauroyl-L- lysine methyl ester]
Average Amount of IFN-α in skin [1]: 540 ± 239 U/mg protein

CCCCCCCCCCCC(=O)NCCCC[C@H](NC(=O)CCCCCCCCCCC)C(=O)OC [PDM18, Nα lauroyl-Nε Lauroyl-L- lysine methyl ester]
Average Amount of IFN-α in skin [1]: 84 ± 52 U/mg protein

IFN-α
induction in 2-5A synthetase enzyme activity (in words) (2-5A synthetase): significant induction | Average % decrease of proliferative cells stained by anti-Ki67 antibody ([3]; Dose 5 MU, compared to placebo treated skin): 14% | anti-proliferative ratio ([3]; Dose 5 MU, proliferating cells in placebo treated skin / after treatment): 1.21 | Average % decrease of proliferative cells stained by anti-Ki67 antibody ([3]; Dose 15 MU, compared to placebo treated skin): 10% | anti-proliferative ratio ([3]; Dose 15 MU, proliferating cells in placebo treated skin / after treatment): 1.32 | Average % decrease of proliferative cells stained by anti-Ki67 antibody ([3]; Dose 40 MU, compared to untreated skin): 38% | anti-proliferative ratio ([3]; Dose 40 MU, proliferating cells in untreated skin / after treatment): 2 | Ki67 staining of skin sections, anti-proliferative effect (in words) ([3]; skin treated with IFN-α): decreased staining | IFN-α specific immunostaining of skin section (in words) [4]: IFN-α specific immunostaining throughout the stratum corneum, epidermis and dermis | further increase in IFN-α levels in skin homogenates (in words) [5]: No significant further increase | increase in IFN-α levels in post-treatment skin homogenates (ELISA) [5]: 3 fold | serum antiviral activity (in words) [6]: significant increase
